Data: patent US6903113B2, “Urea substituted imidazopyridines” (3M Innovative Properties Company, priority 2000, dated 2005)
Where a name gives a salt, the structure may show the parent alone.

Key:
interferon (α) = assay: Cytokine Induction in Human Cells: interferon (α) by ELISA; type: cell-based; parameters: key to Lowest Effective Concentration Interferon: A “*” indicates that no induction was seen at any of the tested concentrations; conditions: human PBMC, 18 to 24 hours incubation, compounds generally tested at 30-0.014 μM; for minimal effective concentration: read-out: Lowest Effective Concentration Interferon
Source text: (§1) An in vitro human blood cell system is used to assess cytokine induction. Activity is based on the measurement of interferon and tumor necrosis factor (α) (IFN and TNF, respectively) secreted into culture media as described by Testerman et. al. In “Cytokine Induction by the Immunomodulators Imiquimod and S-27609”, Journal of Leukocyte Biology, 58, 365-372 (September, 1995).
(§2) Whole blood from healthy human donors is collected by venipuncture into EDTA vacutainer tubes. Peripheral blood mononuclear cells (PBMC) are separated from whole blood by density gradient centrifugation using Histopaque®-1077. Blood is diluted 1:1 with Dulbecco's Phosphate Buffered Saline (DPBS) or Hank's Balanced Salts Solution (HBSS). The PBMC layer is collected and washed twice with DPBS or HBSS and resuspended at 4×10^6 cells/mL in RPMI complete. The PBMC suspension is added to 48 well flat bottom sterile tissue culture plates (Costar, Cambridge, Mass. or Becton Dickinson Labware, Lincoln Park, N.J.) containing an equal volume of RPMI complete media containing test compound.
(§3) The compounds are solubilized in dimethyl sulfoxide (DMSO). The DMSO concentration should not exceed a final concentration of 1% for addition to the culture wells. The compounds are generally tested at concentrations ranging from 30-0.014 μM.
(§4) The solution of test compound is added at 60 μM to the first well containing RPMI complete and serial 3 fold dilutions are made in the wells. The PBMC suspension is then added to the wells in an equal volume, bringing the test compound concentrations to the desired range (30-0.014 μM). The final concentration of PBMC suspension is 2×10^6 cells/mL. The plates are covered with sterile plastic lids, mixed gently and then incubated for 18 to 24 hours at 37° C. in a 5% carbon dioxide atmosphere.
(§5) Following incubation the plates are centrifuged for 10 minutes at 1000 rpm (˜200×g) at 4° C. The cell-free culture supernatant is removed with a sterile polypropylene pipet and transferred to sterile polypropylene tubes. Samples are maintained at −30 to −70° C. until analysis. The samples are analyzed for interferon (α) by ELISA and for tumor necrosis factor (α) by ELISA or IGEN Assay
Interferon (α) concentration is determined by ELISA using a Human Multi-Species kit from PBL Biomedical Laboratories, New Brunswick, N.J. Results are expressed in pg/mL.
(§6) The table below lists the lowest concentration found to induce interferon and the lowest concentration found to induce tumor necrosis factor for each compound.

[1] = tested on: tumor necrosis factor (α); assay: Cytokine Induction in Human Cells: tumor necrosis factor (α) by ELISA or IGEN Assay; type: cell-based; parameters: key to Lowest Effective Concentration Tumor Necrosis Factor: A “*” indicates that no induction was seen at any of the tested concentrations; conditions: human PBMC, 18 to 24 hours incubation, compounds generally tested at 30-0.014 μM; for minimal effective concentration: read-out: Lowest Effective Concentration Tumor Necrosis Factor
Source text: as §1, §2, §3, §4, §5
Tumor necrosis factor (α) (TNF) concentration is determined using ELISA kits available from Biosource International, Camarillo, Calif. Alternately, the TNF concentration can be determined by Origen® M-Series Immunoassay and read on an IGEN M-8 analyzer from IGEN International, Gaithersburg, Md. The immunoassay uses a human TNF capture and detection antibody pair from Biosource International, Camarillo, Calif. Results are expressed in pg/mL.
as §6

| SMILES | melting point | minimal effective concentration (interferon (α)) | minimal effective concentration [1] | Lowest Effective Concentration Tumor Necrosis Factor [1] | Lowest Effective Concentration Interferon (interferon (α)) |
| --- | --- | --- | --- | --- | --- |
| CCCCc1nc2c(N)nc(C)c(C)c2n1CCCCNC(=S)Nc1ccccc1 (hydrate or solvate) [Example 5, N-[4-(4-Amino-2-butyl-6,7-dimethyl-1H-imidazo[4,5-c]pyridin-1-yl)butyl]-N′-phenylthiourea Hydrate] | 160 to 160.8 °C | – | – | – | – |
| CCCCc1nc2c(N)nc(C)c(C)c2n1CCCCNS(=O)(=O)c1ccc(F)cc1 (hydrate or solvate) [Example 3, N-[4-(4-Amino-2-butyl-6,7-dimethyl-1H-imidazo[4,5-c]pyridin-1-yl)butyl]-4-fluorobenzenesulfonamide Hydrate] | 133.1 to 133.7 °C | – | – | – | – |
| CCOCc1nc2c(N)nc(C)c(C)c2n1CCC1CCN(C(=O)N2CCOCC2)CC1 [Example 12, 2-(ethoxymethyl)-6,7-dimethyl-1-{2-[1-(morpholin-4-ylcarbonyl)piperidin-4-yl]ethyl}-1H-imidazo[4,5-c]pyridin-4-amine] | 158.1 to 160.5 °C | – | – | – | – |
| CCOCc1nc2c(N)nc(C)c(C)c2n1CCCCNS(C)(=O)=O [Example 8, N-{4-[4-amino-2-(ethoxymethyl)-6,7-dimethyl-1H-imidazo[4,5-c]pyridin-1-yl]butyl}methanesulfonamide] | 165 to 167 °C | 0.04 µM | 10 µM | – | – |
| Cc1nc(N)c2nc(C)n(CCNC(=O)N3CCOCC3)c2c1C [Example 15, N-[2-(4-amino-2,6,7-trimethyl-1H-imidazo[4,5-c]pyridin-1-yl)ethyl]morpholin-4-ylcarboxamide] | 219 to 221 °C | – | – | – | – |
| Cc1nc(N)c2nc(C)n(CCCNC(=O)N3CCOCC3)c2c1C [Example 13, N-[3-(4-amino-2,6,7-trimethyl-1H-imidazo[4,5-c]pyridin-1-yl)propyl]morpholin-4-ylcarboxamide] | 128.9 to 129.7 °C | – | – | – | – |
| Cc1nc(N)c2nc(C)n(CCCCNS(C)(=O)=O)c2c1C [Example 7, N-[4-(4-amino-2,6,7-trimethyl-1H-imidazo[4,5-c]pyridin-1-yl)butyl]methanesulfonamide] | 228 to 230 °C | 0.37 µM | – | * | – |
| CCOCc1nc2c(N)nc(C)cc2n1CCCCNC(=O)N1CCOCC1 (as salt: salt) [Example 10, N-{4-[4-amino-2-(ethoxymethyl)-6-methyl-1H-imidazo[4,5-c]pyridin-1-yl]butyl}morpholin-4-ylcarboxamide] | 156.5 to 159.5 °C | – | – | – | – |
| CCOCc1nc2c(N)nc(C)c(C)c2n1CCCNC(=O)N1CCOCC1 [Example 14, N-{3-[4-amino-2-(ethoxymethyl)-6,7-dimethyl-1H-imidazo[4,5-c]pyridin-1-yl]propyl}morpholin-4-ylcarboxamide] | 140.5 to 142.2 °C | – | – | – | – |
| CCCCc1nc2c(N)nc(C)c(C)c2n1CCCCNS(C)(=O)=O [Example 2, N-[4-(4-Amino-2-butyl-6,7-dimethyl-1H-imidazo[4,5-c]pyridin-1-yl)butyl]methanesulfonamide] | 130 to 130.5 °C | 0.0046 µM | 0.01 µM | – | – |
| CCOCc1nc2c(N)nc(C)cc2n1CCCCNC(=O)NS(=O)(=O)c1ccc(C)cc1 [Example 48] | – | – | – | * | * |
| CCOCc1nc2c(N)nc(C)cc2n1CCCCNC(=O)Nc1cccc(SC)c1 [Example 44] | – | 3.33 µM | 10 µM | – | – |
| COc1ccc(NC(=O)NCCCCn2cnc3c(N)nc(C)c(C)c32)c(OC)c1 [Example 26] | – | 30 µM | 30 µM | – | – |
| CCOCc1nc2c(N)nc(C)c(C)c2n1CCC1CCN(C(=O)NC(C)(C)C)CC1 [Example 55] | – | 3.33 µM | 10 µM | – | – |
| CCOCc1nc2c(N)nc(C)cc2n1CCCCNC(=O)N[C@@H]1C[C@H]1c1ccccc1 (relative stereo) [Example 46, N-{4-[4-amino-2-(ethoxymethyl)-6-methyl-1H-imidazo[4,5-c]pyridin-1-yl]butyl}-N′-[(1R*,2S*)-2-phenylcyclopropyl]urea] | – | 3.33 µM | 10 µM | – | – |
| CCCCc1nc2c(N)nc(C)c(C)c2n1CCCCNS(=O)(=O)c1ccc(F)cc1 [Example 3, N-[4-(4-Amino-2-butyl-6,7-dimethyl-1H-imidazo[4,5-c]pyridin-1-yl)butyl]-4-fluorobenzenesulfonamide Hydrate] | – | 0.01 µM | 0.37 µM | – | – |
| CCOCc1nc2c(N)nc(C)cc2n1CCCCNC(=O)Nc1ccc(N(C)C)cc1 [Example 43] | – | 0.041 µM | 10 µM | – | – |

| SMILES | melting point | minimal effective concentration (interferon (α)) | minimal effective concentration [1] | Lowest Effective Concentration Tumor Necrosis Factor [1] | Lowest Effective Concentration Interferon (interferon (α)) |
| --- | --- | --- | --- | --- | --- |
| Cc1nc(N)c2ncn(CCCCNC(=O)NS(=O)(=O)c3ccc(Cl)cc3)c2c1C [Example 31] | – | – | – | * | * |
| CCOCc1nc2c(N)nc(C)c(C)c2n1CCC1CCN(C(=O)Nc2cccc(SC)c2)CC1 [Example 64] | – | 0.37 µM | 1.11 µM | – | – |
| CCOCc1nc2c(N)nc(C)c(C)c2n1CCC1CCN(C(=S)NCCc2ccccc2)CC1 [Example 72] | – | 0.37 µM | 1.11 µM | – | – |
| CCOCc1nc2c(N)nc(C)c(C)c2n1CCC1CCN(C(=S)Nc2ccc(OC)cc2)CC1 [Example 73] | – | 0.12 µM | 1.11 µM | – | – |
| Cc1nc(N)c2ncn(CCCCNC(=O)Nc3ccccc3)c2c1C [Example 19] | – | 10 µM | 30 µM | – | – |
| CCOCc1nc2c(N)nc(C)cc2n1CCCCNC(=S)Nc1ccc(OC)cc1 [Example 52] | – | 0.37 µM | 3.33 µM | – | – |
| Cc1ccc(S(=O)(=O)NC(=O)NCCCCn2cnc3c(N)nc(C)c(C)c32)cc1 [Example 30] | – | – | – | * | * |
| CCOCc1nc2c(N)nc(C)c(C)c2n1CCC1CCN(C(=O)Nc2cccc(C#N)c2)CC1 [Example 60] | – | 0.37 µM | 1.11 µM | – | – |
| CCCCNC(=O)NCCCCn1c(COCC)nc2c(N)nc(C)cc21 [Example 38] | – | 3.33 µM | 30 µM | – | – |
| Cc1nc(N)c2ncn(CCCCNC(=O)NS(=O)(=O)c3ccccc3)c2c1C [Example 29] | – | – | – | * | * |
| CCOCc1nc2c(N)nc(C)c(C)c2n1CCC1CCN(C(=O)Nc2ccc(OC)cc2OC)CC1 [Example 65] | – | 0.37 µM | 1.11 µM | – | – |
| CCCCc1nc2c(N)nc(C)c(C)c2n1CCCCNC(=O)Nc1ccccc1 [Example 4, N-[4-(4-Amino-2-butyl-6,7-dimethyl-1H-imidazo[4,5-c]pyridin-1-yl)butyl]-N′-phenylurea] | 195.8 to 196.8 °C | 0.12 µM | 0.37 µM | – | – |
| CCOCc1nc2c(N)nc(C)c(C)c2n1CCC1CCN(C(=O)NCC(=O)OCC)CC1 [Example 59] | – | 1.11 µM | 10 µM | – | – |
| CCOCc1nc2c(N)nc(C)cc2n1CCCCNC(=O)Nc1ccc(OC)cc1OC [Example 45] | – | 3.33 µM | 10 µM | – | – |
| Cc1nc(N)c2ncn(CCCCNC(=O)N3CCOCC3)c2c1C [Example 11, N-[4-(4-amino-6,7-dimethyl-1H-imidazo[4,5-c]pyridin-1-yl)butyl]morpholin-4-ylcarboxamide] | 163.7 to 167 °C | – | – | – | – |
| CCOCc1nc2c(N)nc(C)cc2n1CCCCNC(=S)NC(=O)c1ccco1 [Example 53, N-{4-[4-amino-2-(ethoxymethyl)-6-methyl-1H-imidazo[4,5-c]pyridin-1-yl]butyl}-N′-(2-furoyl)thiourea] | – | 0.37 µM | 3.33 µM | – | – |
| CCOCc1nc2c(N)nc(C)c(C)c2n1CCC1CCN(C(=O)NC2CCCCC2)CC1 [Example 58] | – | 0.37 µM | 3.33 µM | – | – |
